How the values were obtained:
DBA/2 mice = experiment: anticonvulsant protection (DBA2 mouse model of anticonvulsant efficacy, sound-induced seizures); assay type: in vivo; parameters: Anticonvulsant % Protect 2 hr: concentration or dose not given beside the values; settings: for Anticonvulsant % Protect* 1h / Anticonvulsant % Protect* 2h: dosed at 30 mg/kg PO; for Anticonvulsant % Protect 2 hr: Table 1
[1] = anxiolytic activity relative to pregabalin (model not given); assay type: in vivo; settings: dosed at 30 mg/kg PO; percent of pregabalin activity

CCC[C@@H](C)C[C@H](CN)CC(=O)O.Cl [(3S,5R)-3-Aminomethyl-5-methyl-octanoic acid hydrochloride]
Anticonvulsant % Protect* 1h (DBA/2 mice): 100%
Anticonvulsant % Protect* 2h (DBA/2 mice): 100%

CC(C)[C@H](C)[C@H](CN)CC(=O)O [(3R,4S)-3-Aminomethyl-4,5-dimethyl-hexanoic acid]
Anxiolytic Activity* % Preg. Act. [1]: 58%

CC(C)CC(CN)CC(=O)O (centres unmarked) [reference compound]
Anticonvulsant % Protect 2 hr (DBA/2 mice): 100%

CCC(CC)C(CN)CC(=O)O (centres unmarked)
Anticonvulsant % Protect 2 hr (DBA/2 mice): 20%

CCCCC[C@H](C)C[C@H](CN)CC(=O)O [(3S,5S)-3-Aminomethyl-5-methyl-decanoic acid]
Anticonvulsant % Protect* 1h (DBA/2 mice): 0%

CC(C)[C@@H](C)[C@@H](CN)CC(=O)O [(3S,4R)3-Aminomethyl-4,5-dimethyl-hexanoic acid]
Anxiolytic Activity* % Preg. Act. [1]: 12%

CCC(C)CC(CN)CC(=O)O (centres unmarked)
Anticonvulsant % Protect 2 hr (DBA/2 mice): 100%

CC[C@@H](C)[C@H](CN)CC(=O)O
Anticonvulsant % Protect 2 hr (DBA/2 mice): 0%

CC(C)[C@@H](C)C(CN)CC(=O)O (some centres unmarked)
Anticonvulsant % Protect 2 hr (DBA/2 mice): 100%

CCCC(C)CC(CN)CC(=O)O (centres unmarked) [3-Aminomethyl-5-methyloctanoic acid, 3-Aminomethyl-5-methyl-octanoic acid]
Anticonvulsant % Protect* 2h (DBA/2 mice): 100%
